Data: paper PMC11748689, “Pharmacological and structural understanding of the Trypanosoma cruzi proteasome provides key insights for developing site-specific inhibitors” (The Journal of Biological Chemistry, 2024)

What was measured:
[1] = target: native T. cruzi proteasome (caspase-like activity, β1) (Trypanosoma cruzi, UniProt V5BHX1); assay: Caspase-like activity assay (Proteasome-Glo), native T. cruzi proteasome; format: biochemical; conditions: mean ± SD, N = 3; read-out: pIC50, Caspase Assay, Native (converted)
Description: (§1) Chymotrypsin-, trypsin-, and caspase-like activity assays were performed using a commercially available Proteasome-Glo 3-substrate system assay kit (catalog number G8532) (Promega Corporation) according to the manufacturers protocols and as previously described ([24]).
(§2) Prior to running assays, Proteasome-Glo buffer was used to reconstitute the luciferin detection reagent (containing a recombinant thermostable luciferase enzyme). The resuspended luciferin detection reagent was then mixed with Proteasome-Glo chymotrypsin-, trypsin- or caspase-like substrates (either 40 μM suc-Leu-Leu-Val-Tyr-aminoluciferin, 30 μM Z-Leu-Arg-Arg-aminoluciferin (Z is benzyloxycarbonyl) or 40 μM Z-Nle-Pro-Nle-Asp-aminoluciferin respectively (these concentrations represent 2x final assay concentrations)). These substrate mixtures were allowed to incubate at room temperature for 60 min prior to use to allow the removal of any contaminating free aminoluciferin.
(§3) When proteasome inhibitors were to be screened in the chymotrypsin, trypsin, and caspase assays, test compounds were dispensed into assay wells using an ECHO 550 acoustic dispenser (Labcyte) (final DMSO concentration 1%). Compounds were tested in either a 10-point concentration series (30 μM top final assay concentration, 1 in 3 dilution series) or a 12-point concentration series (30 μM top final assay concentration, 1 in 2.5 dilution series).
Proteasome assays were then performed as described above using Promega Proteasome-Glo 3-substrate system assay kit. […] Diluted proteasome (4 μl) was added to assay plates using an electronic multichannel pipette (Integra Biosciences Ltd) and the proteasome incubated with compound for 60 min at room temperature.
Following the 60 min incubation of proteasome and compounds, assays were initiated with the addition of 4 μl of a substrate mix (containing substrate and the luciferin detection reagent) using an electronic multichannel pipette. Final assay concentrations of substrates used were either 20 μM Suc-Leu-Leu-Val-Tyr-aminoluciferin, 15 μM Z-Leu-Arg-Arg-aminoluciferin, or 20 μM Z-Nle-Pro-Nle-Asp-aminoluciferin for chymotrypsin-, trypsin-, or caspase-like activity, respectively. Following a further 60 min assay incubation, luminescence was read using an EnVision 2102 Multilabel Reader (PerkinElmer, Inc) with 0.2 s per well reading time.
All data processing was performed using Microsoft Excel for Microsoft 365 software.
Nonlinear dose-response curve fitting was carried out using the Microsoft Excel add-in, XLfit (IDBS). Percentage inhibition data were either fitted to a standard 4-parameter logistic fit model (XLfit model 205; Equation 2) or a biphasic model (either XLfit model 300; Equation 3 or a custom biphasic model; Equation 4 (used in cases where the top and/or bottom parameters deviated from 100%/0% inhibition)).(2) y=A+(B−A)/1+(C/x)^D Where A = % inhibition at bottom, B = % inhibition at top, C = IC50, D = slope, x = inhibitor concentration and y = % inhibition.(3) y=(A/(1+10^(C−log(x))∗B))+((100−A)/(1+10^(D−log(x))∗B)) With A = % inhibition at midplateau, B = slope, C = log(IC50^A), D = log(IC50^B)).
All IC50 data generated were converted to pIC50 using Equation 5.

[2] = target: recombinant β4^R mutant T. cruzi proteasome (trypsin-like activity) (Trypanosoma cruzi, UniProt V5BCU3); format: biochemical; conditions: for pIC50, Trypsin Assay, β4^R mutant: mean ± SD, N = 3
Description: Point mutations were created in individual subunits using overlapping PCR from the original templates using Polh and Tn7L primers outside the genes and suitable internal primers to introduce selected mutations. For Δβ1Δβ2, β1 Thr 55, and β2 Thr 67 were both mutated to Ala, the β4^R mutant was produced by mutating Phe 24 and Ile 29 to Leu and Met respectively in β4 subunit.
as §1, §2
(§4) Proteasome assays were carried out using 384-well, white, low-volume plates (catalog number 784904) (Greiner Bio-One) at room temperature (∼23 °C) in 8 μl reaction volumes. When activity checks were to be run in the presence or absence of a fixed concentration of proteasome inhibitor, 80 nL of the inhibitor (at a concentration 100x the required final assay concentration), or 80 nL dimethylsulfoxide (DMSO), were dispensed into assay plates using an Echo 550 acoustic dispenser (Labcyte).
(§5) A 1 in 2 dilution series of the various T. cruzi proteasome samples (native, recombinant WT, β4^R mutant, and Δβ1Δβ2 mutant) were produced in assay buffer (50 mM Tris–HCl, pH 7.5, 10 mM sucrose, 5 mM MgCl2, 1 mM DTT, 2 mM ATP, 150 mM NaCl, 1 mM EDTA, and 0.05 mg/ml bovine serum albumin). Subsequently, 4 μl of the various concentrations of diluted proteasome were added to assay plates using an electronic multichannel pipette (Integra Biosciences Ltd). When kinetic read activity checks were performed (Fig. 2), proteasome final assay concentrations used were 115 μg/ml, 115 μg/ml, and 230 μg/ml native proteasome (in the chymotrypsin, trypsin, and caspase assays, respectively), and 4.1 μg/ml, 3.4 μg/ml, or 1.4 μg/ml recombinant WT proteasome (in the chymotrypsin, trypsin, and caspase assays, respectively). When activity checks were to be run in the presence or absence of a proteasome inhibitor plates containing inhibitor or DMSO control were incubated with the relevant proteasome sample for 60 min at room temperature (this step was not included in activity check experiments where compounds were not used).
(§6) Following the 60 min incubation of proteasome and compound (if required), assays were initiated with the addition of 4 μl of substrate mix (containing substrate and the luciferin detection reagent) using an electronic multichannel pipette. Final assay concentrations of substrates used were either 20 μM Suc-Leu-Leu-Val-Tyr-aminoluciferin, 15 μM Z-Leu-Arg-Arg-aminoluciferin, or 20 μM Z-Nle-Pro-Nle-Asp-aminoluciferin for chymotrypsin-, trypsin- or caspase-like activity respectively.
(§7) Luminescence was read either kinetically or as an endpoint read using an EnVision 2102 Multilabel Reader (PerkinElmer, Inc) with 0.2 s per well reading time. When kinetic assays were run, luminescence was read every 5 min for 90 min. Endpoint assays were run for 60 min before luminescence was read. All data processing and linear fit analyses were performed using Microsoft Excel for Microsoft 365 software (Redmond, Washington; https://www.microsoft.com/).

[3] = target: recombinant WT T. cruzi proteasome (chymotrypsin-like activity, β5) (Trypanosoma cruzi, UniProt V5BU39+V5C017); assay: biochemical; format: biochemical; conditions: for maximum % inhibition plateau, Chymotrypsin Assay, Wild-type: mean ± SD, N = 3 (N = 2 for DDD02091966), (a) mid-point plateau from biphasic curve fits
Description: as §1, §2, §4, §5, §6, §7, §3

[4] = system: intracellular T. cruzi Silvio X10/7 A1 amastigotes; assay: Intracellular T. cruzi assay; format: cell-based; conditions: Trypanosoma cruzi; 96 h compound treatment, Vero host cells; given as [mean pEC50, SD, N]; read-out: Mean pEC50 against intracellular T. cruzi parasites (converted)
Description: Potency against intracellular T. cruzi Silvio X10/7 A1 amastigotes was determined as described previously ([53]), with a sole modification that the compound treatment duration was 96 h instead of 72 h. Vero host cells were obtained from The European Collection of Authenticated Cell Cultures (cat. number 84113001) and tested for mycoplasma (negative). T. cruzi Silvio X10/7 A1 was obtained from Prof. Alan Fairlamb, and discrete typing unit confirmed by genotyping ([53]).

Chain of recombinant WT T. cruzi proteasome (chymotrypsin-like activity, β5) (V5BGL9 entry or part of it): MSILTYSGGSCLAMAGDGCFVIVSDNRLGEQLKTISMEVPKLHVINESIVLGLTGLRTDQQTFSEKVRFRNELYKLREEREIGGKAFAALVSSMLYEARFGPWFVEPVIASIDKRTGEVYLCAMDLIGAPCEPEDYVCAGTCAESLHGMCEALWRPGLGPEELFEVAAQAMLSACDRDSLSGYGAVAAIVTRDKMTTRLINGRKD
Chain of recombinant WT T. cruzi proteasome (chymotrypsin-like activity, β5) (V5BU39 entry or part of it): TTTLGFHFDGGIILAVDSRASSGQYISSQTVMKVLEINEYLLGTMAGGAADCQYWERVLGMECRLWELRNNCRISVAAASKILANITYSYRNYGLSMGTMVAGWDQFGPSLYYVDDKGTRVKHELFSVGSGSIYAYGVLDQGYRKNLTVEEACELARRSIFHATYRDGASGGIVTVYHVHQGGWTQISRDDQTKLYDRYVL
Chain of recombinant WT T. cruzi proteasome (chymotrypsin-like activity, β5) (V5C017 entry or part of it): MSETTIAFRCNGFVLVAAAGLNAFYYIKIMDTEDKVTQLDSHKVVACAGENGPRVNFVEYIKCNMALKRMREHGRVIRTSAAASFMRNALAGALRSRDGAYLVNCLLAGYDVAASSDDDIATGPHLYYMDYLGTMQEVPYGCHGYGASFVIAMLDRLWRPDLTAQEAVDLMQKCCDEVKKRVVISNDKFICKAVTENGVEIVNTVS

O=C(Nc1ccc(F)c(C(=O)NC2CC2)c1)c1ccc(COc2ccccc2)o1 [DDD02091966, N-(3-(cyclopropylcarbamoyl)-4-fluorophenyl)-5-(phenoxymethyl)furan-2-carboxamide]
IC50 [1]: > 30.2 µM | pIC50, Trypsin Assay, β4^R mutant [2]: <4.52 | IC50 [3]: 34.7 nM | maximum % inhibition plateau, Chymotrypsin Assay, Wild-type [3]: 51.6 ± 1.8% | EC50 [4]: 251 nM

O=C(Nc1ccc(F)c(-c2cn3nc(-c4ccccc4)cnc3n2)c1)N1CCCC1 [DDD01012248]
IC50 [1]: > 30.2 µM | inhibition of trypsin activity, β4^R mutant, fixed concentration ([2]; 1 μM compound (Fig. S4)): did not inhibit | pIC50, Trypsin Assay, β4^R mutant [2]: <4.52 | IC50 [3]: 52.5 nM | inhibition of chymotrypsin activity, recombinant WT proteasome, fixed concentration ([3]; 1 μM compound, endpoint activity vs proteasome concentration (Fig. 7A)): partial inhibition | maximum % inhibition plateau, Chymotrypsin Assay, Wild-type [3]: 67.7 ± 4.0% | EC50 [4]: 20 nM
